From patent US8192962B2, “Processes for detecting toxic substances” (Daikin Industries, Ltd., priority 2001, dated 2012)

System: Unknown protein yeast genes
Assay: DNA chip mRNA expression in yeast, unknown protein yeast genes (Table 1)
Type: cell-based, Saccharomyces cerevisiae S288C
Outline: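 S. cerevisiae S288C grown at 25° C in YPD were exposed in log phase for two hours to one toxic chemical at a growth-inhibiting, non-lethal concentration; untreated cells served as control. Poly(A) mRNA was reverse-transcribed with Cy3/Cy5-dUTP and hybridized to a whole-genome yeast DNA chip at 65° C for over 12 hours; values are fluorescence ratios versus untreated.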

With `N#Cc1c(Cl)c(Cl)c(Cl)c(C#N)c1Cl` [(9), 2,4,5,6-tetrachloro-1,3-benzenedicarbonitrile] the “The level of expressed mRNA in the presence of chemical substance/The level of expressed mRNA in the absence of chemical substance” value (yeast gene YAL053W, incubated two hours with chemical substance) was 1.4, the “The level of expressed mRNA in the presence of chemical substance/The level of expressed mRNA in the absence of chemical substance” value (yeast gene YBL048W) was 7.2 and the “The level of expressed mRNA in the presence of chemical substance/The level of expressed mRNA in the absence of chemical substance” value (yeast gene YBL107C) was 1.0. For the same compound, the “The level of expressed mRNA in the presence of chemical substance/The level of expressed mRNA in the absence of chemical substance” value (yeast gene YDL072C, incubated two hours with chemical substance) was 1.1, the “The level of expressed mRNA in the presence of chemical substance/The level of expressed mRNA in the absence of chemical substance” value (yeast gene YDL146W) was 0.8 and the “The level of expressed mRNA in the presence of chemical substance/The level of expressed mRNA in the absence of chemical substance” value (yeast gene YDL204W, incubated two hours with chemical substance) was 2.3. For the same compound, the “The level of expressed mRNA in the presence of chemical substance/The level of expressed mRNA in the absence of chemical substance” value (yeast gene YDL222C, incubated two hours with chemical substance) was 1.9, the “The level of expressed mRNA in the presence of chemical substance/The level of expressed mRNA in the absence of chemical substance” value (yeast gene YDR057W) was 1.5 and the “The level of expressed mRNA in the presence of chemical substance/The level of expressed mRNA in the absence of chemical substance” value (yeast gene YDR286C) was 0.8. The “The level of expressed mRNA in the presence of chemical substance/The level of expressed mRNA in the absence of chemical substance” value (yeast gene YDR330W, incubated two hours with chemical substance) was 3.9, the “The level of expressed mRNA in the presence of chemical substance/The level of expressed mRNA in the absence of chemical substance” value (yeast gene YDR391C, incubated two hours with chemical substance) was 1.5 and the “The level of expressed mRNA in the presence of chemical substance/The level of expressed mRNA in the absence of chemical substance” value (yeast gene YDR411C, incubated two hours with chemical substance) was 0.7. For the same compound, the “The level of expressed mRNA in the presence of chemical substance/The level of expressed mRNA in the absence of chemical substance” value (yeast gene YDR511W, incubated two hours with chemical substance) was 2.5, the “The level of expressed mRNA in the presence of chemical substance/The level of expressed mRNA in the absence of chemical substance” value (yeast gene YDR545W, incubated two hours with chemical substance) was 1.8 and the “The level of expressed mRNA in the presence of chemical substance/The level of expressed mRNA in the absence of chemical substance” value (yeast gene YEL001C, incubated two hours with chemical substance) was 2.0. The “The level of expressed mRNA in the presence of chemical substance/The level of expressed mRNA in the absence of chemical substance” value (yeast gene YER004W, incubated two hours with chemical substance) was 4.5, the “The level of expressed mRNA in the presence of chemical substance/The level of expressed mRNA in the absence of chemical substance” value (yeast gene YER035W, incubated two hours with chemical substance) was 1.2 and the “The level of expressed mRNA in the presence of chemical substance/The level of expressed mRNA in the absence of chemical substance” value (yeast gene YER079W, incubated two hours with chemical substance) was 5.3. For the same compound, the “The level of expressed mRNA in the presence of chemical substance/The level of expressed mRNA in the absence of chemical substance” value (yeast gene YER106W, incubated two hours with chemical substance) was 0.4, the “The level of expressed mRNA in the presence of chemical substance/The level of expressed mRNA in the absence of chemical substance” value (yeast gene YER158C, incubated two hours with chemical substance) was 2.1 and the “The level of expressed mRNA in the presence of chemical substance/The level of expressed mRNA in the absence of chemical substance” value (yeast gene YER163C, incubated two hours with chemical substance) was 5.4. The “The level of expressed mRNA in the presence of chemical substance/The level of expressed mRNA in the absence of chemical substance” value (yeast gene YER175C, incubated two hours with chemical substance) was 1.9, the “The level of expressed mRNA in the presence of chemical substance/The level of expressed mRNA in the absence of chemical substance” value (yeast gene YFL006W, incubated two hours with chemical substance) was 3.2 and the “The level of expressed mRNA in the presence of chemical substance/The level of expressed mRNA in the absence of chemical substance” value (yeast gene YFL010C, incubated two hours with chemical substance) was 3.1. For the same compound, the “The level of expressed mRNA in the presence of chemical substance/The level of expressed mRNA in the absence of chemical substance” value (yeast gene YFL017C) was 0.8, the “The level of expressed mRNA in the presence of chemical substance/The level of expressed mRNA in the absence of chemical substance” value (yeast gene YFL024C) was 0.5 and the “The level of expressed mRNA in the presence of chemical substance/The level of expressed mRNA in the absence of chemical substance” value (yeast gene YFL032W, incubated two hours with chemical substance) was 0.5. The “The level of expressed mRNA in the presence of chemical substance/The level of expressed mRNA in the absence of chemical substance” value (yeast gene YFR008W) was 1.5, the “The level of expressed mRNA in the presence of chemical substance/The level of expressed mRNA in the absence of chemical substance” value (yeast gene YGL037C, incubated two hours with chemical substance) was 2.1 and the “The level of expressed mRNA in the presence of chemical substance/The level of expressed mRNA in the absence of chemical substance” value (yeast gene YGL047W, incubated two hours with chemical substance) was 4.5. For the same compound, the “The level of expressed mRNA in the presence of chemical substance/The level of expressed mRNA in the absence of chemical substance” value (yeast gene YGL053W, incubated two hours with chemical substance) was 3.3, the “The level of expressed mRNA in the presence of chemical substance/The level of expressed mRNA in the absence of chemical substance” value (yeast gene YGL121C) was 7.0 and the “The level of expressed mRNA in the presence of chemical substance/The level of expressed mRNA in the absence of chemical substance” value (yeast gene YGR101W, incubated two hours with chemical substance) was 4.0. The “The level of expressed mRNA in the presence of chemical substance/The level of expressed mRNA in the absence of chemical substance” value (yeast gene YGR110W) was 6.4, the “The level of expressed mRNA in the presence of chemical substance/The level of expressed mRNA in the absence of chemical substance” value (yeast gene YGR130C, incubated two hours with chemical substance) was 2.0 and the “The level of expressed mRNA in the presence of chemical substance/The level of expressed mRNA in the absence of chemical substance” value (yeast gene YGR154C, incubated two hours with chemical substance) was 25.2. For the same compound, the “The level of expressed mRNA in the presence of chemical substance/The level of expressed mRNA in the absence of chemical substance” value (yeast gene YHL042W) was 0.8, the “The level of expressed mRNA in the presence of chemical substance/The level of expressed mRNA in the absence of chemical substance” value (yeast gene YHR138C, incubated two hours with chemical substance) was 5.3 and the “The level of expressed mRNA in the presence of chemical substance/The level of expressed mRNA in the absence of chemical substance” value (yeast gene YHR199C, incubated two hours with chemical substance) was 8.6. For the same compound, the “The level of expressed mRNA in the presence of chemical substance/The level of expressed mRNA in the absence of chemical substance” value (yeast gene YIL023C, incubated two hours with chemical substance) was 3.5, the “The level of expressed mRNA in the presence of chemical substance/The level of expressed mRNA in the absence of chemical substance” value (yeast gene YIL024C, incubated two hours with chemical substance) was 2.2 and the “The level of expressed mRNA in the presence of chemical substance/The level of expressed mRNA in the absence of chemical substance” value (yeast gene YIL041W, incubated two hours with chemical substance) was 1.8. The “The level of expressed mRNA in the presence of chemical substance/The level of expressed mRNA in the absence of chemical substance” value (yeast gene YIL087C, incubated two hours with chemical substance) was 2.4, the “The level of expressed mRNA in the presence of chemical substance/The level of expressed mRNA in the absence of chemical substance” value (yeast gene YIL117C, incubated two hours with chemical substance) was 2.3 and the “The level of expressed mRNA in the presence of chemical substance/The level of expressed mRNA in the absence of chemical substance” value (yeast gene YJL057C, incubated two hours with chemical substance) was 7.3. The “The level of expressed mRNA in the presence of chemical substance/The level of expressed mRNA in the absence of chemical substance” value (yeast gene YJL066C, incubated two hours with chemical substance) was 2.0, the “The level of expressed mRNA in the presence of chemical substance/The level of expressed mRNA in the absence of chemical substance” value (yeast gene YJL082W, incubated two hours with chemical substance) was 1.4 and the “The level of expressed mRNA in the presence of chemical substance/The level of expressed mRNA in the absence of chemical substance” value (yeast gene YJL108C, incubated two hours with chemical substance) was 0.3. For the same compound, the “The level of expressed mRNA in the presence of chemical substance/The level of expressed mRNA in the absence of chemical substance” value (yeast gene YJL151C, incubated two hours with chemical substance) was 0.5, the “The level of expressed mRNA in the presence of chemical substance/The level of expressed mRNA in the absence of chemical substance” value (yeast gene YJL152W, incubated two hours with chemical substance) was 0.3 and the “The level of expressed mRNA in the presence of chemical substance/The level of expressed mRNA in the absence of chemical substance” value (yeast gene YJL161W, incubated two hours with chemical substance) was 3.1. The “The level of expressed mRNA in the presence of chemical substance/The level of expressed mRNA in the absence of chemical substance” value (yeast gene YJL171C, incubated two hours with chemical substance) was 1.0, the “The level of expressed mRNA in the presence of chemical substance/The level of expressed mRNA in the absence of chemical substance” value (yeast gene YJR008W, incubated two hours with chemical substance) was 1.8 and the “The level of expressed mRNA in the presence of chemical substance/The level of expressed mRNA in the absence of chemical substance” value (yeast gene YKL065C) was 3.1. The “The level of expressed mRNA in the presence of chemical substance/The level of expressed mRNA in the absence of chemical substance” value (yeast gene YKL071W) was 162.2, the “The level of expressed mRNA in the presence of chemical substance/The level of expressed mRNA in the absence of chemical substance” value (yeast gene YKL086W, incubated two hours with chemical substance) was 8.2 and the “The level of expressed mRNA in the presence of chemical substance/The level of expressed mRNA in the absence of chemical substance” value (yeast gene YKL147C) was 1.0. For the same compound, the “The level of expressed mRNA in the presence of chemical substance/The level of expressed mRNA in the absence of chemical substance” value (yeast gene YKL151C, incubated two hours with chemical substance) was 3.3 and the “The level of expressed mRNA in the presence of chemical substance/The level of expressed mRNA in the absence of chemical substance” value (yeast gene YKL153W, incubated two hours with chemical substance) was 0.8.
